{"source": "ChEMBL document CHEMBL1142095", "about": "“Diminished ciprofloxacin-induced chondrotoxicity by supplementation with magnesium and vitamin E in immature rats” (Antimicrob Agents Chemother, 2007)", "tested_on": "Rattus norvegicus", "assay": "Reduction in incidence of 600 mg/kg, sc ciprofloxacin-induced cartilage lesions in vitamin E-enriched diet fed immature Wistar rat after 10 days", "type": "functional, organism-based", "parameters": "dose 600 mg/kg; scale not given: the % may be the effect or the level left", "settings": "at 600 mg/kg"}
{"substance": "VITAMIN E", "values": [{"measurement": "Activity", "value": 41, "unit": "%"}]}
